Assay results: US20080227809A1, “Arylalkylamine Vanadium (V) Salts for the Treatment and/or Prevention of Diabetes Mellitus” (GENMEDICA THERAPEUTICS SL, priority 2004, published 2008)
Entries after “also recorded” stand apart in the source; their conditions may differ.

Assays:
[1] = test system: streptozotocin-induced diabetic rats; test: chronic subcutaneous (osmotic minipump) treatment, glycemia of streptozotocin (45 mg/kg) diabetic rats; format: in vivo, rat; details: for effect on glycemia: 2.5 μmol/kg/day subcutaneous by osmotic minipumps, about two weeks
Experimental: Insulin concentrations were determined before and after treatment.
The effect of chronic administration of hexaquis(benzylammonium) decavanadate on glycemia from diabetic rats was determined. Thus, diabetes was induced in rats by intravenous administration of streptozotocin, which destroys the β-pancreatic cells that produce insulin.
(§1) Chronic in vivo efficacy of B6V10 was evaluated in streptozotocin-induced diabetic rats and in db/db mice. Streptozotocin-induced (45 mg/kg) diabetic rats were subcutaneously treated with hexaquis(benzylammonium) decavanadate (2.5 μmol/kg) (B6V10, solid squares, FIG. 8A) or with decavanadate (2.5 μmol/kg) (V10, open circles, FIG. 8A) delivered subcutaneously by osmotic minipumps implanted in the dorsal region. Diabetic rats were also sham-operated (untreated, solid diamonds, FIG. 8A). […] These experiments were repeated using an oral administration protocol. Streptozotocin-induced (45 mg/kg) diabetic rats were orally treated with hexaquis(benzylammonium) decavanadate (5 μmol/kg from day 0 to day 7 and 10 μmol/kg/day from day 7 to day 17) (B6V10, solid squares, FIG. 8B) or received decavanadate (10 μmol/kg) (V10, open circles, FIG. 8B). Nondiabetic rats were also untreated (solid triangles, FIG. 8B).

[2] = test system: streptozotocin-induced diabetic rats; test: chronic oral treatment, glycemia of streptozotocin (45 mg/kg) diabetic rats; format: in vivo, rat
Experimental: The effect of the oral administration of hexaquis(benzylammonium) decavanadate on glycemia from diabetic rats was also studied. Diabetes was induced in rats by intravenous administration of streptozotocin, and subsequently, a hexaquis(benzylammonium) decavanadate or sodium decavanadate unique dose was administered to the rats. […] After seven days of treatment, the dose was increased at 10 μmol/kg/day which was maintained for an additional ten days. […] Thus, glycemia in sodium decavanadate treated rats was approximately 450 mg/dl and glycemia of hexaquis(benzylammonium) decavanadate treated rats was approximately 250 mg/dl.
as §1

insulin receptor = test: tyrosine phosphorylation of insulin receptor in isolated rat adipocytes; format: cell-based; details: 25 μM
Experimental: Isolated fat cells were disrupted for total membrane preparation by hypo-osmotic lysis in a 20 mM HES buffer and an antiprotease and antiphosphatase cocktail as reported by Abella et al. (2003, Diabetes 52: 1004-1013). Protein concentrations were determined by the Bradford method (Bradford, 1976, Anal. Biochem. 72: 248-254) with gamma-globulin as protein concentration standard. Immunoprecipitation and immunoblot assays were performed as previously described by Abella et al. (2004, Id.) with the use of a monoclonal antiphosphotyrosine antibody for the immunoprecipitation and an anti-insulin receptor antibody for immunobloting, respectively. SDS-polyacrylamide gel electrophoresis was performed on membrane proteins following conventional procedures. Proteins were transferred to Immobilon and immunoblotting was performed as reported by Castello et al. (1994, J. Biol. Chem. 269: 5905-5912).
The mechanism of action of B6V10 was investigated in isolated rat adipocytes. Adipose cells from Wistar rats were incubated for different times in the presence of 25 μM hexaquis(benzylammonium) decavanadate (B6V10). […] Subsequently, 2-deoxyglucose uptake (results shown in FIG. 7A), tyrosine phosphorylation of insulin receptor (FIG. 7B), phospho-Thr^308-protein kinase B (FIG. 7C) and phospho-Ser^473-protein kinase B (FIG. 7D) was measured. […]

db/db mice = test: chronic treatment of obese diabetic db/db mice, glycemia; format: in vivo, mouse
Experimental: as §1

diabetic rats = test: plasma lipids of diabetic rats; format: in vivo, rat
Experimental: Plasma triglycerides (Biosystems, Barcelona, Spain) and NEFAS (Wako Chemicals, Neuss, Germany) were determined with standard calorimetric methods.
The concentration of circulating lipids under these conditions was also assayed. […] Untreated diabetic (solid bars, FIG. 9B) or nondiabetic rats (open bars, FIG. 9B) were similarly assayed as controls.

Substance: hexaquis(benzylammonium) decavanadate [Example B6V10]
- time of treatment after which reduction of hyperglycemia was detected ([1]; 2.5 μmol/kg/day subcutaneous): four
- effect on glycemia [1]: significant correction of hyperglycemia; also recorded: significant lowering in blood glucose levels; also recorded: ameliorated hyperglycemia
- effect on glycemia ([1]; listed as hexaquis(benzylammonium) decavanadate): rapid reduction of the hyperglycemia
- day of treatment from which glycemia differed significantly from the untreated group ([1]; Bonferroni post-tests, P<0.01, FIG. 8A): 8
- effect on glycemia ([2]; daily oral administration, 17 days): significant correction of hyperglycemia; also recorded: significant lowering in blood glucose levels; also recorded: ameliorated hyperglycemia
- time of treatment after which decrease of hyperglycemia was detected ([2]; oral 5 μmol/kg/day): two
- effect on hyperglycemia ([2]; oral 5 μmol/kg/day for seven days): moderate decrease of hyperglycemia
- effect of dosage increase on glycemia ([2]; oral 10 μmol/kg/day from day 7 for additional ten days): additional decrease in glycemia
- glycemia ([2]; oral, after dosage increase to 10 μmol/kg/day): approximately 250 mg/dl
- tyrosine phosphorylation of insulin receptors (insulin receptor): undetectable
- effect on glycemia (db/db mice): ameliorated glycemia
- plasma concentration of cholesterol (diabetic rats): normalized
- plasma concentration of free fatty acids (diabetic rats): normalized
- plasma concentration of triglycerides (diabetic rats): normalized
